From patent US6740651B2, “Aminoquinazolines which inhibit signal transduction mediated by tyrosine kinases” (Boehringer Ingelheim Pharma KG, priority 2000, dated 2004)

Target: T1, human EGF-R (Homo sapiens, UniProt P00533)
T1 construct: expressed in transfected cells; host or cells: F/L-HERc cells (murine IL-3-dependent FDC-P1 line transduced with LXSN retroviral vector carrying human EGF-R cDNA; packaging line GP+E86)
Assay: Inhibition of the EGF-dependent proliferation of F/L-HERc cells (Cell Titer 96 proliferation assay)
Assay type: cell-based
Conditions: F/L-HERc cells (murine IL-3-dependent line expressing human EGF-R), stimulated with EGF 20 ng/ml, 48 hours at 37° C.
Source text: A cell line of murine origin dependent on interleukin-3-(IL-3) which was genetically modified to express functional human EGF-R was used here. The proliferation of these cells known as F/L-HERc can therefore be stimulated either by murine IL-3 or by EGF (cf. von Rüden, T. et al. in EMBO J. 7, 2749-2756 (1988) and Pierce, J. H. et al. in Science 239, 628-631 (1988)).
The starting material used for the F/L-HERc cells was the cell line FDC-P1, the production of which has been described by Dexter, T. M. et al. in J. Exp. Med. 152, 1036-1047 (1980). Alternatively, however, other growth-factor-dependent cells may also be used (cf. for example Pierce, J. H. et al. in Science 239, 628-631 (1988), Shibuya, H. et al. in Cell 70, 57-67 (1992) and Alexander, W. S. et al. in EMBO J. 10, 3683-3691 (1991)). […]
In order to determine the inhibitory activity of the compounds according to the invention the relative cell number was measured in O.D. units using the Cell Titer 96™ Aqueous Non-Radioactive Cell Proliferation Assay (Promega). […]

T1 sequence (P00533 25-1210): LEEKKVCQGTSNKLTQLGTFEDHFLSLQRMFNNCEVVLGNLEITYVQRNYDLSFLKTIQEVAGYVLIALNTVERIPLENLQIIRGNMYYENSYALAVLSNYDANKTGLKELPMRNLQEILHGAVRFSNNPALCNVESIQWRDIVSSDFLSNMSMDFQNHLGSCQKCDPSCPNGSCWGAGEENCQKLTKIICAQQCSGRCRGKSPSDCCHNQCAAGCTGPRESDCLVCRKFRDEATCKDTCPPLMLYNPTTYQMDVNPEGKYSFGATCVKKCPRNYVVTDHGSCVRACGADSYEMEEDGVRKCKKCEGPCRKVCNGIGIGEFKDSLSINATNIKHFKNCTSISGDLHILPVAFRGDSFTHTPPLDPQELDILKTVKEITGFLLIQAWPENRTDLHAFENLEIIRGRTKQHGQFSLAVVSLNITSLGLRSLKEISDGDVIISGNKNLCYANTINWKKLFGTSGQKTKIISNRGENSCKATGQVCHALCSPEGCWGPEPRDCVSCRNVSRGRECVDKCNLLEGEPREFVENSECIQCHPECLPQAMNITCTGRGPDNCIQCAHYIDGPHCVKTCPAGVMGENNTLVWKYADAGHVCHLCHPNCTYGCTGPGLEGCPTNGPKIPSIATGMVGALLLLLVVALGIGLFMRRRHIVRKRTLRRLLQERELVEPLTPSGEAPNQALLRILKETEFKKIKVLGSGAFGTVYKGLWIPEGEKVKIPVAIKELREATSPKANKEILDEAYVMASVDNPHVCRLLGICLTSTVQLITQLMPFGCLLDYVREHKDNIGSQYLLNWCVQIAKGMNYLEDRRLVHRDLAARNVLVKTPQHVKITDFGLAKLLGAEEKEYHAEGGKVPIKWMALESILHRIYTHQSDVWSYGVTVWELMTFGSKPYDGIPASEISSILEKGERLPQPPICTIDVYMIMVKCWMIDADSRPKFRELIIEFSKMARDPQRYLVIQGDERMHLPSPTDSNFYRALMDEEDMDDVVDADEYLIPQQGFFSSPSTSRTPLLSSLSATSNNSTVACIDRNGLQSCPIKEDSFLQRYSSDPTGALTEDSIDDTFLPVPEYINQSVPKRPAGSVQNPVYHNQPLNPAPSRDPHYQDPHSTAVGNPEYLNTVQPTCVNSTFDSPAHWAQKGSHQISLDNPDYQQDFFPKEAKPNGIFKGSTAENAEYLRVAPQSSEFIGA

IC50: 2 nM
SMILES: COC[C@H]1CN(CC=CC(=O)Nc2cc3c(Nc4ccc(F)c(Cl)c4)ncnc3cc2OCC2CC2)CC(=O)O1 [Example 1, 4-[(3-chloro-4-fluoro-phenyl)amino]-6-{[4-((R)-2-methoxymethyl-6-oxo-morpholin-4-yl)-1-oxo-2-buten-1-yl]amino}-7-cyclopropylmethoxy-quinazoline]
